From patent US20230295197A1, “STAT5 and STAT6 Degraders and Uses Thereof” (REGENTS OF THE UNIVERSITY OF MICHICAN, priority 2022, published 2023) come the findings set out here.

This test deals with T1, STAT6 (Homo sapiens, UniProt P42226).
T1 construct: endogenous in cells; host or cells: MOLM-16, KU-812, SKNO1, MB231, L1236
T1 sequence (P42226 1-847): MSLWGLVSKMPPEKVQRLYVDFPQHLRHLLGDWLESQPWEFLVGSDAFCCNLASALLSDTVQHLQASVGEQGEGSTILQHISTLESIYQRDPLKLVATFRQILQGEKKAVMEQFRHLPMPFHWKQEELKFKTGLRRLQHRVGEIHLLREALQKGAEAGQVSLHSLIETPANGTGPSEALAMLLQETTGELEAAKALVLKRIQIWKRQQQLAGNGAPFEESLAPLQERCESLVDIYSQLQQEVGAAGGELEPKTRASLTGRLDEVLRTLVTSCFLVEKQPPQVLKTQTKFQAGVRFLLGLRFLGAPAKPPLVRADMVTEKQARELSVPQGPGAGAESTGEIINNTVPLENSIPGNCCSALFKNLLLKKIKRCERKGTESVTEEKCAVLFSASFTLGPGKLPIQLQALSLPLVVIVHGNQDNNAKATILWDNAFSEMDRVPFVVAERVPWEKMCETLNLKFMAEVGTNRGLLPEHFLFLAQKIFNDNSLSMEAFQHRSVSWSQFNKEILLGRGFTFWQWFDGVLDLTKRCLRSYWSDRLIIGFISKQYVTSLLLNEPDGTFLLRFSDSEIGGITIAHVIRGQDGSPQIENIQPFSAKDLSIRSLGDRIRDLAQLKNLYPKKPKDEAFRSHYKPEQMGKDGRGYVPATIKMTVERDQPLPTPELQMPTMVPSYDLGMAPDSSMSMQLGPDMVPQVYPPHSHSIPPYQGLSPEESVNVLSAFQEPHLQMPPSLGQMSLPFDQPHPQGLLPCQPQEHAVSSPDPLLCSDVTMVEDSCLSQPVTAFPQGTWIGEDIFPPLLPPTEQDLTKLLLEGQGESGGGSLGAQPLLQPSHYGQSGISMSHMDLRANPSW
Kind of test: Immunoblotting (Western blot) analysis of STAT6 degradation efficiency of degraders in treated cells. It is filed as cell-based. The essentials: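 Each data point uses roughly one million cells dosed as indicated; pellets are lysed on ice, freeze-thawed, and clarified. Reduced, denatured samples (95 °C, 5 min) run on SDS gels, then membranes receive rabbit mAbs to STAT5 or STAT6 plus mouse anti-GAPDH overnight, followed by dye-labelled secondaries for fluorescence imaging.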
On the technique in general: A western blot detects proteins with antibodies after separation by electrophoresis.

[1] abbreviates: L1236 cells, read-out: DC50 S6 L1236.
[2] abbreviates: MOLM-16 cells, class symbols, read-out: DC50 S6 MOLM-16.

Read-outs that look alike come from different tables or passages of the source.

Consider `Cc1ncsc1-c1ccc(CNC(=O)[C@@H]2C[C@@H](O)CN2C(=O)[C@@H](NC(=O)CCCCCCNC(=O)CO[C@@H]2C[C@@H](C(=O)N(C)c3ccc(Br)cc3)N(C(=O)[C@@H](NC(=O)c3cc4cc(C(F)(F)P(=O)(O)O)ccc4s3)C(C)(C)C)C2)C(C)(C)C)cc1` [Compound 418, ((2-(((S)-1-((2S,4R)-2-((4-bromophenyl)(methyl)carbamoyl)-4-(2-((7-(((S)-1-((2S,4R)-4-hydroxy-2-((4-(4-methylthiazol-5-yl)benzyl)carbamoyl)pyrrolidin-1-yl)-3,3-dimethyl-1-oxobutan-2-yl)amino)-7-oxoheptyl)amino)-2-oxoethoxy)pyrrolidin-1-yl)-3,3-dimethyl-1-oxobutan-2-yl)carbamoyl)benzo[b]thiophen-5-yl)difluoromethyl)phosphonic acid], for which the 50% degradation concentration (DC50) is, setting by setting: under setting [1], > 10 µM; (MB231 cells, read-out: DC50 S6 MB231) > 10 µM. In the case of `CC(C)(C)[C@H](NC(=O)c1cc2cc(C(F)(F)P(=O)(O)O)ccc2s1)C(=O)N1CCN(C(=O)CC(=O)NCCCCCCCCC#Cc2ccc3c(c2)C(=O)N(C2CCC(=O)NC2=O)C3=O)C[C@H]1C(=O)N1CCO[C@H](c2ccccc2)C1` (stereo partly drawn) [Compound 518, ((2-(((2S)-1-((2S)-4-(3-((10-(2-(2,6-dioxopiperidin-3-yl)-1,3-dioxoisoindolin-5-yl)dec-9-yn-1-yl)amino)-3-oxopropanoyl)-2-((R)-2-phenylmorpholine-4-carbonyl)piperazin-1-yl)-3,3-dimethyl-1-oxobutan-2-yl)carbamoyl)benzo[b]thiophen-5-yl)difluoromethyl)phosphonic acid], the DC50 under setting [2] was > 10 µM. For `CC(C)(C)[C@H](NC(=O)c1cc2cc(C(F)(F)P(=O)(O)O)ccc2s1)C(=O)N1C[C@@H](OCCCCCCC#Cc2cccc3c2CN(C2CCC(=O)NC2=O)C3=O)C[C@H]1C(=O)N1CCOC(c2cccnc2)C1` (stereo partly shown) [Compound 609], the 50% degradation concentration (DC50) (MOLM-16 cells, numeric bound, read-out: DC50 S6 MOLM-16) is > 0.3 µM. Turning to `CC(C)(C)[C@H](NC(=O)c1cc2cc(C(F)(F)P(=O)(O)O)ccc2s1)C(=O)N1C[C@@H](OCCCCCCCCCC#Cc2cccc3c2CN(C2CCC(=O)NC2=O)C3=O)C[C@H]1C(=O)N1CCO[C@H](c2ccccc2)C1` (stereo partly drawn) [Compound 584, ((2-(((2S)-1-((2S,4S)-4-((11-(2-(2,6-dioxopiperidin-3-yl)-1-oxoisoindolin-4-yl)undec-10-yn-1-yl)oxy)-2-((R)-2-phenylmorpholine-4-carbonyl)pyrrolidin-1-yl)-3,3-dimethyl-1-oxobutan-2-yl)carbamoyl)benzo[b]thiophen-5-yl)difluoromethyl)phosphonic acid], the 50% degradation concentration (DC50) runs as follows: under setting [1], > 10 µM; under setting [2], 0.1 to 1 µM. Taken in the same sequence, the figures for `Cc1ncsc1-c1ccc([C@H](C)NC(=O)[C@@H]2C[C@@H](O)CN2C(=O)[C@@H](NC(=O)CCCCCCCCNC(=O)CC(=O)N2CCN(C(=O)[C@@H](NC(=O)c3cc4cc(C(F)(F)P(=O)(O)O)ccc4s3)C(C)(C)C)[C@H](C(=O)N3CCC[C@H](c4ccccc4)C3)C2)C(C)(C)C)cc1` [Compound 459, (difluoro(2-(((S)-1-((S)-4-(3-((9-(((S)-1-((2S,4R)-4-hydroxy-2-(((S)-1-(4-(4-methylthiazol-5-yl)phenyl)ethyl)carbamoyl)pyrrolidin-1-yl)-3,3-dimethyl-1-oxobutan-2-yl)amino)-9-oxononyl)amino)-3-oxopropanoyl)-2-((R)-3-phenylpiperidine-1-carbonyl)piperazin-1-yl)-3,3-dimethyl-1-oxobutan-2-yl)carbamoyl)benzo[b]thiophen-5-yl)methyl)phosphonic acid] were > 10 µM and > 10 µM. `CC(C)(C)[C@H](NC(=O)c1cc2cc(C(F)(F)P(=O)(O)O)ccc2s1)C(=O)N1C[C@H](OCCCCCC(=O)N2Cc3cc4c(cc3C2)C(=O)N(C2CCC(=O)NC2=O)C4)C[C@H]1C(=O)N1CCO[C@H](c2ccccc2)C1` (stereo partly drawn) [Compound 592, ((2-(((2S)-1-((2S,4R)-4-((6-(6-(2,6-dioxopiperidin-3-yl)-5-oxo-3,5,6,7-tetrahydropyrrolo[3,4-f]isoindol-2(1H)-yl)-6-oxohexyl)oxy)-2-((R)-2-phenylmorpholine-4-carbonyl)pyrrolidin-1-yl)-3,3-dimethyl-1-oxobutan-2-yl)carbamoyl)benzo[b]thiophen-5-yl)difluoromethyl)phosphonic acid]: the DC50 under setting [2] was 1 to 10 µM. Same read-out and setting: then `CC(C)(C)[C@H](NC(=O)c1cc2cc(C(F)(F)P(=O)(O)O)ccc2s1)C(=O)N1Cc2cc(OCC(=O)NCCCCC#Cc3cccc4c3C(=O)N(C3CCC(=O)NC3=O)C4=O)ccc2C[C@H]1C(=O)N1CCC[C@H](c2ccccc2)C1` (stereo partly drawn) [Compound 555, ((2-(((2S)-1-((3S)-7-(2-((6-(2-(2,6-dioxopiperidin-3-yl)-1,3-dioxoisoindolin-4-yl)hex-5-yn-1-yl)amino)-2-oxoethoxy)-3-((R)-3-phenylpiperidine-1-carbonyl)-3,4-dihydroisoquinolin-2(1H)-yl)-3,3-dimethyl-1-oxobutan-2-yl)carbamoyl)benzo[b]thiophen-5-yl)difluoromethyl)phosphonic acid], with > 10 µM.

For the molecule `CC(C)(C)[C@H](NC(=O)c1cc2cc(C(F)(F)P(=O)(O)O)ccc2s1)C(=O)N1C[C@@H](NC(=O)CCCCCC#Cc2ccc3c(c2)CN(C2CCC(=O)NC2=O)C3=O)C[C@H]1C(=O)N1CCO[C@H](c2ccccc2)C1` (stereo partly drawn) [Compound 566, ((2-(((2S)-1-((2S,4S)-4-(8-(2-(2,6-dioxopiperidin-3-yl)-1-oxoisoindolin-5-yl)oct-7-ynamido)-2-((R)-2-phenylmorpholine-4-carbonyl)pyrrolidin-1-yl)-3,3-dimethyl-1-oxobutan-2-yl)carbamoyl)benzo[b]thiophen-5-yl)difluoromethyl)phosphonic acid], the half-maximal degradation concentration (DC50) runs as follows: under setting [1], > 10 µM; under setting [2], > 10 µM. Consider `CC(C)(C)[C@H](NC(=O)c1cc2cc(C(F)(F)P(=O)(O)O)ccc2s1)C(=O)N1CCN(C(=O)CC(=O)NCCC#Cc2cccc3c2C(=O)N(C2CCC(=O)NC2=O)C3=O)C[C@H]1C(=O)N1CCC[C@H](c2ccccc2)C1` (stereo partly drawn) [Compound 523, ((2-(((2S)-1-((2S)-4-(3-((4-(2-(2,6-dioxopiperidin-3-yl)-1,3-dioxoisoindolin-4-yl)but-3-yn-1-yl)amino)-3-oxopropanoyl)-2-((R)-3-phenylpiperidine-1-carbonyl)piperazin-1-yl)-3,3-dimethyl-1-oxobutan-2-yl)carbamoyl)benzo[b]thiophen-5-yl)difluoromethyl)phosphonic acid], for which the DC50 under setting [2] is > 10 µM. For the molecule `CC(C)(C)[C@H](NC(=O)c1cc2cc(C(F)(F)P(=O)(O)O)ccc2s1)C(=O)N1Cc2cc(OCC(=O)NCC#Cc3cccc4c3C(=O)N(C3CCC(=O)NC3=O)C4=O)ccc2C[C@H]1C(=O)N1CCC[C@H](c2ccccc2)C1` (stereo partly drawn) [Compound 549, ((2-(((2S)-1-((3S)-7-(2-((3-(2-(2,6-dioxopiperidin-3-yl)-1,3-dioxoisoindolin-4-yl)prop-2-yn-1-yl)amino)-2-oxoethoxy)-3-((R)-3-phenylpiperidine-1-carbonyl)-3,4-dihydroisoquinolin-2(1H)-yl)-3,3-dimethyl-1-oxobutan-2-yl)carbamoyl)benzo[b]thiophen-5-yl)difluoromethyl)phosphonic acid], the half-maximal degradation concentration (DC50) under setting [2] is > 10 µM. Regarding `Cc1ncsc1-c1ccc([C@H](C)NC(=O)[C@@H]2C[C@@H](O)CN2C(=O)[C@@H](NC(=O)CCCCCCCCCNC(=O)CO[C@H]2C[C@@H](C(=O)N3CCC[C@H](c4ccccc4)C3)N(C(=O)[C@@H](NC(=O)c3cc4cc(C(F)(F)P(=O)(O)O)ccc4s3)C(C)(C)C)C2)C(C)(C)C)cc1` [Compound 442, (difluoro(2-(((S)-1-((2S,4S)-4-(2-((10-(((S)-1-((2S,4R)-4-hydroxy-2-(((S)-1-(4-(4-methylthiazol-5-yl)phenyl)ethyl)carbamoyl)pyrrolidin-1-yl)-3,3-dimethyl-1-oxobutan-2-yl)amino)-10-oxodecyl)amino)-2-oxoethoxy)-2-((R)-3-phenylpiperidine-1-carbonyl)pyrrolidin-1-yl)-3,3-dimethyl-1-oxobutan-2-yl)carbamoyl)benzo[b]thiophen-5-yl)methyl)phosphonic acid], the DC50 is > 10 µM under setting [1] and > 10 µM under setting [2].

What is called DC50 is the concentration giving 50% degradation.
